{
  "source": "patent US4537895A",
  "about": "“Isoquinoline derivatives” (EGYT Gyogyszervegyeszeti Gyar, priority 1982, dated 1985)",
  "key": {"[1]": {"assay": "Acute toxicity, s.c., LD50", "set-up": "species or system mice", "conditions": "mouse, in vivo", "procedure": "(§1) The acute toxicity data are determined in mice. Tests 2-6 are also carried out in mice. The doses are expressed in micromole/kg. The therapeutical index (TI) is the LD/ED quotient."}, "[2]": {"test_system": "catalepsy induced by Haloperidol", "assay": "Test 2: inhibition of haloperidol-induced catalepsy", "format": "in vivo", "procedure": "(§2) 2. S.c. dose which inhibits the catalepsy induced by a 13 umole/kg dose of Haloperidol, in 50% of the mice.\nas §1\n(§3) Tests 2, 8, 9 and 10 are suitable for the evaluation of the dopaminerg stimulating effect of the test compounds (potential anti-parkinson agent). Tests 4, 5, 6 and 7 give information about the catecholamine-uptake inhibiting effect (potential antidepressive activity)."}, "spontaneous motility": {"test_system": "spontaneous motility", "assay": "Test 3: spontaneous motility", "format": "in vivo", "procedure": "3. Lowest i.p. dose which still increases or decreases the spontaneous motility of the mice.\nas §1\nIn Test 3 \"+=motility increase\" and \"-=motility decrease.\""}, "[3]": {"test_system": "catalepsy induced by tetrabenazine", "assay": "Test 4: inhibition of tetrabenazine-induced catalepsy", "format": "in vivo", "procedure": "(§4) 4. S.c. dose which inhibits the catalepsy induced by a 110 umole/kg dose of tetrabenazine, in 50% of the mice.\nas §1, §3"}, "[4]": {"test_system": "ptosis induced by tetrabenazine", "assay": "Test 5: inhibition of tetrabenazine-induced ptosis", "format": "in vivo", "procedure": "5. S.c. dose which inhibits the ptosis induced by a dose of 79 umole/kg of tetrabenazine, in 50% of the mice.\nas §1, §3"}, "[5]": {"test_system": "decrease of the rectal temperature caused by reserpine", "assay": "Test 6: reserpine-induced decrease of rectal temperature", "format": "in vivo", "procedure": "6. The lowest s.c. dose which still hinders the decrease of the rectal temperature caused by the administration of a 1,6 umole/kg dose of reserpine.\nas §1, §3"}, "[6]": {"test_system": "blood pressure and nictitating membrane", "assay": "Test 7: blood pressure and nictitating membrane effect", "format": "in vivo", "conditions": "Felis catus, iv, cats; \">\" = inactive in the given dose; read-out: Lowest i.v. dose which still increases the blood pressure and nictitating membrane effect (Test 7)", "procedure": "(§5) Tests 7-10 are carried out in cats and rats, the doses are expressed in micromole/kg.\nas §3"}, "stereotypy": {"test_system": "stereotypy", "assay": "Test 8: induction of stereotypy", "format": "in vivo", "conditions": "Rattus norvegicus, sc, rats; \">\" = inactive in the given dose; read-out: Lowest s.c. dose which still induces stereotypy (Test 8)", "procedure": "8. The lowest s.c. dose which still induces stereotypy, in rats.\nas §5, §3"}, "prolactine level": {"test_system": "prolactine level", "assay": "Test 10: decrease of prolactine level in ovariectomised rats", "format": "in vivo", "conditions": "Rattus norvegicus, 96 h, after 4 days treatment with oestradiol 0.073 umole/kg, read-out: Dose which induces a significant decrease of the prolactine level (Test 10)", "procedure": "10. The dose which induces a significant decrease of the prolactine level after 4 days treatment with a dose of 0.073 umole/kg of oeastradiol, on three weeks earlier ovariectomised rats.\nas §5, §3"}, "[7]": {"test_system": "catalepsy induced by Haloperidol / tetrabenazine", "assay": "Comparison of anti-haloperidol (Test 2) and anti-tetrabenazine (Test 4) activity", "format": "in vivo, mice", "procedure": "as §2, §4, §1\nOn comparing the dopaminerg type anti-haloperidol test and the anti-tetrabenazine activity being characteristic of the antidepressive effect the following can be stated:\nThe quotient of the ED values of Columns 2 and 4 is the highest for Compound I (55:13=4.2). […] The said quotient is high in the case of Nomifensine (1.6), Compound D (1.8), Compound E (2.7) and Compound F (1.7)."}, "[8]": {"assay": "Overall comparison with Nomifensine in the pharmacological tests", "format": "in vivo", "procedure": "The pharmacological activity of the compounds of the present invention is determined by the following tests:\nas §1, §5"}},
  "data": [
    {"smiles": "CCOC(=O)Nc1cccc2c1CN(C)CC2c1ccc(Cl)cc1", "note": "(stereo not shown) [Compound I, 8-ethoxycarbonylamino-4-p-chloro-phenyl-2-methyl-1,2,3,4-tetrahydroisoquinoline]", "values": [
      {"measurement": "Toxicity compared with Nomifensine (in words)", "setting": "[1]", "result": "toxicity is much lower"},
      {"measurement": "LD50 at 96 h", "setting": "[1]; sc, mice, 96 hour observation", "result": 2180, "unit": "µmol/kg"},
      {"measurement": "TI (Test 2), LD/ED quotient", "setting": "[2]; LD50 / ED of Test 2", "result": 40},
      {"measurement": "ED50", "setting": "[2]; Mus musculus, sc, read-out: ED, s.c. dose which inhibits the catalepsy induced by Haloperidol in 50% of the mice (Test 2)", "result": 55, "unit": "µmol/kg"},
      {"measurement": "TI (Test 3), LD/ED quotient", "setting": "spontaneous motility; LD50 / ED of Test 3", "result": 275},
      {"measurement": "minimal effective dose", "setting": "spontaneous motility; Mus musculus, ip, read-out: ED, lowest i.p. dose which still decreases the spontaneous motility (Test 3, -)", "result": 7.9, "unit": "µmol/kg"},
      {"measurement": "TI (Test 4), LD/ED quotient", "setting": "[3]; LD50 / ED of Test 4", "result": 167},
      {"measurement": "ED50", "setting": "[3]; Mus musculus, sc, read-out: ED, s.c. dose which inhibits the catalepsy induced by tetrabenazine in 50% of the mice (Test 4)", "result": 13, "unit": "µmol/kg"},
      {"measurement": "TI (Test 5), LD/ED quotient", "setting": "[4]; LD50 / ED of Test 5", "result": 1360},
      {"measurement": "ED50", "setting": "[4]; Mus musculus, sc, read-out: ED, s.c. dose which inhibits the ptosis induced by tetrabenazine in 50% of the mice (Test 5)", "result": 1.6, "unit": "µmol/kg"},
      {"measurement": "TI (Test 6), LD/ED quotient", "setting": "[5]; LD50 / ED of Test 6", "result": 84},
      {"measurement": "minimal effective dose", "setting": "[5]; Mus musculus, sc, read-out: ED, lowest s.c. dose which still hinders the decrease of the rectal temperature caused by reserpine (Test 6)", "result": 26, "unit": "µmol/kg"},
      {"measurement": "minimal effective dose", "setting": "[6]", "result": 1.3, "unit": "µmol/kg"},
      {"measurement": "minimal effective dose", "setting": "stereotypy", "result": 21, "unit": "µmol/kg"},
      {"measurement": "minimal effective dose", "setting": "prolactine level", "result": 26, "unit": "µmol/kg"},
      {"measurement": "Quotient of the ED values of Columns 2 and 4", "setting": "[7]; ED Test 2 (haloperidol) : ED Test 4 (tetrabenazine)", "result": "4,2"},
      {"measurement": "Antidepressant versus antiparkinson profile (in words)", "setting": "[7]; from quotient ED2:ED4", "result": "relatively a stronger antidepressant than an antiparkinsone agent"},
      {"measurement": "Activity compared with Nomifensine (in words)", "setting": "[8]; all tests", "result": "activity is higher than that of Nomifensine"},
      {"measurement": "Therapeutical index relative to that of Nomifensine", "setting": "[8]; various tests", "result": "2-6,8 times higher"}
    ]}
  ]
}
